Test results taken from patent US20190224147A1, “CETP MODULATOR FOR USE IN THE TREATEMENT OF EYE DISEASE” (Hoffmann-La Roche Inc., priority 2013, published 2019).
Marks after values point to notes of the source that are not given here.

Key:
VCAM-1 expression = settings: pre-incubation of human aortic endothelial cells; Martin K R et al, Atherosclerosis 2000; cited from earlier work
E-selectin expression = settings: pre-incubation of human aortic endothelial cells; Martin K R et al, Atherosclerosis 2000; cited from earlier work
ICAM-1 = settings: pre-treatment of human aortic endothelial cells; Martin K R et al, Atherosclerosis 2000; cited from earlier work
[1] = Golden Syrian hamsters study b: lutein and zeaxanthin levels in plasma and liver; type: in vivo; settings: hamsters fed 0.1% FLORAGLO, 14 days, dalcetrapib 0.320% (~300 mg/kg) or anacetrapib 0.024% (~25 mg/kg) in diet
Experimental: (§1) Hamsters (7 weeks-old) were fed a standard rodent chow diet containing 4.5% fat and 0.05% cholesterol and coconut oil (70 g/kg dry food) for 14 days. After 2 weeks of high-fat diet feeding, hamsters were allocated to 3 experimental treatment groups of 10 animals each based on plasma lipid levels, and provided the same diet as before supplemented with 0.1% (w/w) FLORAGLO (same composition as for Study 2) and either no treatment (group 1), dalcetrapib at 0.320% (w:w, ˜300 mg/kg, group 2), or anacetrapib at 0.024% (w:w, ˜25 mg/kg, group 3). After 14 days of treatment, plasma and livers were collected for lutein and zeaxanthin analysis as described in study a.

[2] = Golden Syrian hamsters study b: additional variables measured (cholesterol fractions, triglycerides); type: in vivo; settings: 14 days, dalcetrapib ~300 mg/kg or anacetrapib ~25 mg/kg in diet
Experimental: as §1, with “3).” for “3). After 14 days of treatment, plasma and livers were collected for lutein and zeaxanthin analysis as described in study a.”

[3] = Golden Syrian hamsters study a: lutein and zeaxanthin levels in plasma, liver and eyecups (HPLC-MS); type: in vivo; settings: hamsters fed 0.1% FLORAGLO, dalcetrapib 0.375% food admixture (~400 mg/kg), 14 days
Experimental: Hamsters (7 weeks-old) were fed a standard rodent chow diet containing 4.5% fat and 0.05% cholesterol and coconut oil (70 g/kg dry food) for 14 days. After two weeks of feeding, hamsters were allocated to 2 experimental groups of 10 animals and given the same diet as before supplemented with 0.1% (w:w) FLORAGLO (lutein 5.2%, zeaxanthin 0.5%, DSM Nutritional Products): group 1 received no treatment, group 2 was given dalcetrapib as a 0.375% food admixture (˜400 mg/kg).
After 14 days of treatment and 4 hours of fasting, plasma, liver and eyes were collected and kept frozen until analysis. Lutein and zeaxanthin levels in plasma, liver and the pooled eyecups from 2 hamsters were determined by HPLC-MS using cryptoxanthin as internal standard. Plasma samples were directly extracted with hexane/ethyl acetate in dark environment in the presence of BHT. Liver samples and pooled eye cups (n=4) were first homogenized in the presence of BHT using an appropriate solvent in a Precellys tissue homogenizer followed by saponification prior extraction with hexane/ethyl acetate. The organic phase was washed with water. All organic phases were dried and reconstituted in methanol containing 0.1%. HPLC-MS was accomplished on a Waters TQ-S in APCI mode coupled to an Acquity I-class UPLC (Waters AG, Baden-Dättwil) on an ACCLAIM C30 RP column (Thermo Fisher Scientific, Reinach).

| SMILES | reduced VCAM-1 expression (VCAM-1 expression) [%] | reduced E-selectin expression (E-selectin expression) [%] | reduced the expression of ICAM-1 (ICAM-1) [%] | Change in liver lutein, in % vs control [1] | Change in liver zeaxanthin, in % vs control [1] | Change in plasma lutein, in % vs control [1] | Change in plasma zeaxanthin, in % vs control [1] | Triglycerides, in % vs control [2] | VLDL-C, in % vs control [2] | further results |
| --- | --- | --- | --- | --- | --- | --- | --- | --- | --- | --- |
| CC1=C[C@H](O)CC(C)(C)[C@H]1/C=C/C(C)=C/C=C/C(C)=C/C=C/C=C(C)/C=C/C=C(C)/C=C/C1=C(C)C[C@@H](O)CC1(C)C [lutein, (3R,3′R,6′R)-β,ε-Carotene-3,3′-diol] | 28 | 34 | 14 |  |  |  |  |  |  |  |
| COc1cc(F)c(C(C)C)cc1-c1ccc(C(F)(F)F)cc1CN1C(=O)O[C@H](c2cc(C(F)(F)F)cc(C(F)(F)F)c2)[C@@H]1C [anacetrapib] |  |  |  | −32% | −31% | ns | ns | ns | ns | HDL-C, in % vs control [2]: +54*** %; LDL-C, in % vs control [2]: −99*** %; Total cholesterol, in % vs control [2]: +28** % |
| CCC(CC)CC1(C(=O)Nc2ccccc2SC(=O)C(C)C)CCCCC1 [dalcetrapib, S-[2-([[1-(2-ethylbutyl)-cyclohexyl]-carbonyl]amino)phenyl]2-methylpropanethioate] |  |  |  | +90% | +109% | +95% | +101% | −37** % | −27* % | Change in liver lutein, in % vs control ([3]; liver): +107%; Change in liver zeaxanthin, in % vs control ([3]; liver): +222.9%; Change in plasma lutein, in % vs control ([3]; plasma): +55.7%; Change in plasma zeaxanthin, in % vs control ([3]; plasma): +164%; Change in eyecups lutein, in % vs control ([3]; pooled eyecups): +164.6%; Change in eyecups zeaxanthin, in % vs control ([3]; pooled eyecups): +114% |
| CC1=C(/C=C/C(C)=C/C=C/C(C)=C/C=C/C=C(C)/C=C/C=C(C)/C=C/C2=C(C)CCCC2(C)C)C(C)(C)CCC1 [beta-carotene] | 29 | 38 | 11 |  |  |  |  |  |  |  |
| CC(C)=CCC/C(C)=C/C=C/C(C)=C/C=C/C(C)=C/C=C/C=C(C)/C=C/C=C(C)/C=C/C=C(\C)CCC=C(C)C [lycopene] | 13 |  | 18 |  |  |  |  |  |  |  |
